Laboratory results reported in patent US20160122387A1, “Angiotensin Peptide and Pharmaceutical Compositions for Disease Treatment” (UNIVERSIDADE FEDERAL DE MINAS GERAIS - UFMG, priority 2012, published 2016).

Tests used:
[1] = system: thoracic aortic rings of normotensive Wistar rats; assay: Vasorelaxation in thoracic aortic rings of normotensive Wistar rats pre-contracted with phenylephrine; design: species or system rat; details: aortic rings of Wistar and SHR rats (FIGS. 2A and 2B)
Method: (§1) Three- to four-mm rings of the descending thoracic aorta, free from adipose and connective tissue, were maintained in a gasified solution (95% 02 and 5% CO2) of Krebs-Henseleit, at 37° C. under 1.0 g tension, 1 hour for stabilization. The presence of functional endothelium was assessed by the ability of acetylcholine [ACh] (10 μmol/L) to induce more than 70% relaxation of vessels pre-contracted with phenylephrine (Phe) ([…]). The mechanical activity, recorded isometrically by a force transducer, was fed into a recorder-amplifier and a computer equipped with an analog-digital converter board, using CVMS data acquisition/recording software.
(§2) The vessels from normotensive Wistar rats and spontaneously hypertensive rats (SHR) were pre-contracted in the same voltage level (approximately 1.0 g tension) at the submaximal concentration of phenylephrine ([…]). Arg0-Ang-(1-7) and Ang-(1-7) were added in increasing cumulative concentrations as the response to phenylephrine was stabilized. Results are presented as mean±SEM. One-way analysis of variance (ANOVA) with Newman-Keuls post test of multiple comparisons was used to compare the concentration response curves obtained in the aortic rings. The vasodilatation effect of arg0-Ang-(1-7) and Ang-(1-7) was expressed as the percentage of decrease in peak concentration induced by phenylephrine. […]

[2] = target: T1, rat receptor Mas (Rattus norvegicus, UniProt P12526); assay: Nitric oxide production in CHO cells transfected with the Mas receptor (DAF-FM fluorescence); type: cell-based; details: 10^−7 mol/L, 60 minutes
T1 construct: expressed in transfected cells
T1 sequence (P12526 1-324): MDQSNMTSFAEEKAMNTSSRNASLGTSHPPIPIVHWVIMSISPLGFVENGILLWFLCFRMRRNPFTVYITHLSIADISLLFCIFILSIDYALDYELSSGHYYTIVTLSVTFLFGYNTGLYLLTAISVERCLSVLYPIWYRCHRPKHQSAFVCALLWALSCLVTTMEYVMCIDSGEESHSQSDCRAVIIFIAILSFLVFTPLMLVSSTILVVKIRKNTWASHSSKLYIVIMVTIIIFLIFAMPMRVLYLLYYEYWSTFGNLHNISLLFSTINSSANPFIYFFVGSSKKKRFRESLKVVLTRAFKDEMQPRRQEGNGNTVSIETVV
Method: Chinese hamster ovary cells (CHO) were stably transfected with the cDNA of the rat receptor Mas driven by a cytomegalovirus promoter and selected using neomycin. Nitric oxide production was monitored using the indicator NO 4-amino-5-methylamino-2′,7′-difluorofluorescent diacetate.
Confluent CHO cells transfected with the Mas receptor and cultured in 6-well plates were preincubated in 1.5 ml of serum free medium (DMEM) containing DAF-FM (least 5 uM) and supplemented with 0.2% BSA, 0.005% bacitracin, […] phenylmethylsulfonyl fluoride and […] 1, 10-phenanthroline at 37° C. in a humidified incubator in an atmosphere with 5% CO2. After 30 minutes, cells were washed and incubated with arg0-Ang-(1-7) and Ang-(1-7) at 10^−7 mol/L for 60 minutes. Subsequently, the cells were washed twice and the slides were mounted for confocal microscopy for evaluation.
Relative fluorescence measurements were made using a Zeiss LSM 510 laser scanning META confocal microscope excited at 488 nm with an argon-ion laser (objective lens immersion oil, 63×).
Results are presented as mean±SEM. One-way analysis of variance with Bonferroni post-test for multiple comparisons was used to compare the concentration-response curve in CHO cells transfected with the receptor Mas. All statistical analyses were considered significant when p<0.05.

[3] = system: thoracic aortic rings of spontaneously hypertensive rats (SHR); assay: Vasorelaxation in thoracic aortic rings of spontaneously hypertensive rats (SHR) pre-contracted with phenylephrine; design: species or system rat; details: percentage of decrease of phenylephrine contraction
Method: as §1, §2

[4] = system: mesenteric artery rings of SHR; assay: Vasorelaxation in mesenteric artery rings of SHR; design: species or system rat; details: expressed as percentage of decrease of phenylephrine contraction
Method: Rings (2.0 mm) of mesenteric artery (2nd and/or 3rd branches) in spontaneously hypertensive rats (SHR), free from adipose and connective tissue, were maintained in a gasified solution (95% 02 and 5% CO2) of Krebs-Hanseleit to 37° C. After a 15 minute stabilization period, the artery was stretched, gradually, to a resting tension considered optimal with respect to its inner diameter. In each arterial segment, the voltage/diameter was calculated by the internal circumference which corresponds to a transmural pressure of 100 mmHg for a relaxed vessel in situ (IC100) using software specific for standardization resistance arteries. For the experiments, the arteries were maintained with an internal circumference, IC1, calculated using the formula IC1=0.90×IC100, in which the development of strength is maximum, as previously described by Mulvany and Halpern (1977). The effective luminal diameter was determined according to the I1=IC1/π equation. The diameter of the vessels used ranged from 200 to 300 μm.
The arteries were stimulated with a high concentration of potassium chloride (KCl 120 mmol/1), in order to assess their functional integrity. […]
The presence of functional endothelium was assessed by the ability of acetylcholine [ACh] […] The mechanical activity was recorded isometrically using a myograph, and this was connected to a system for data acquisition and a computer. […]

[5] = system: Human alveolar adenocarcinoma cells (A549); assay: Anti-proliferative effect in A549 cells (AlamarBlue cell viability); type: cell-based; details: 1×10^−4 to 2×10^−7M, 48 hours
Method: Human alveolar adenocarcinoma cells (A549), cultured in DEMEM supplemented with 10% fetal bovine serum and 1% penicillin/streptomycin, were distributed into 96 wells plate at the density of 2×10^4 cells/well. After 48 hours of incubation in an incubator at 37° C., the arg0-angiotensin-(1-7) and angiotensin (1-7) peptides were added to the wells and serially diluted (1×10^−4 to 2×10^−7M) in culture medium free of fetal bovine serum. Wells not plated with cells and wells with cells but stimulated only with culture medium were used as controls. The stimulus, which lasted 48 hours, was followed by the addition of AlamarBlue reagent (Invitrogen), used to detect cell viability.

Asp-Arg-Val-Tyr-Ile-His-Pro [Ang-(1-7)]
endothelium dependence of the vasorelaxant effect [1]: endothelium-dependent
nitric oxide production [2]: stimulated nitric oxide production
Emax of vasorelaxation [3]: 30±3%
Emax of vasorelaxation [4]: 28%
anti-proliferative effect [5]: anti-proliferative effect
